From ChEMBL document CHEMBL1201862, “PubChem BioAssay data set” (2004)
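Cells were grown in 96-well plates and exposed to each compound for 48 hours at five concentrations; endpoints were interpolated linearly between bracketing concentrations, or set to the highest concentration if not reached. GI50 = concentration required for 50% inhibition of growth.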 Calls of active or inactive are those of the source. Rule as the data show it: active = GI50 up to about 1.1 µM and inactive = higher.

How the values were obtained:
Assay in all cases: NCI anticancer screen, dose series, 48 h
[1] = test system: ACHN
[2] = test system: U-251
[3] = test system: HL-60
[4] = test system: SK-MEL-2
[5] = test system: HT-29
[6] = test system: M14
[7] = test system: LOX IMVI
[8] = test system: OVCAR-4
[9] = test system: NCI/ADR-RES
[10] = test system: HOP-62
[11] = test system: SF-539
[12] = test system: SNB-75
[13] = test system: HCT-116
[14] = test system: HCC 2998
[15] = test system: OVCAR-3
[16] = test system: K562
[17] = test system: Hs-578T
[18] = test system: OVCAR-5
[19] = test system: UACC-257
[20] = test system: SK-OV-3

Measured: GI50

COc1ccc(C2C(C=O)C(N3CCN(C)CC3)=Nc3nc4ccccc4n32)cc1 (configuration not stated)
inactive: [1] 18.2 µM | [2] 17.7 µM | [3] 2.09 µM | [4] 13.1 µM | [5] 15.8 µM | [6] 17.4 µM | [7] 17.3 µM | [8] 8.18 µM | [9] 17.4 µM | [10] 12.2 µM | [11] 22.1 µM | [12] 11.8 µM | [13] 14.6 µM | [14] 17.7 µM | [15] 14.3 µM | [17] 33 µM | [18] 23.3 µM | [19] 16.6 µM
active: [16] 1.08 µM

CCOC(=O)c1nc2ccc(C(F)(F)F)cc2nc1Oc1ccc(F)cc1
inactive: [1] > 100 µM | [2] > 100 µM | [3] > 100 µM | [4] > 100 µM | [5] > 100 µM | [6] > 100 µM | [7] > 100 µM | [8] > 100 µM | [9] > 100 µM | [10] > 100 µM | [11] > 100 µM | [12] > 100 µM | [13] > 100 µM | [14] > 100 µM | [20] > 100 µM | [16] 42.3 µM | [17] > 100 µM | [19] > 100 µM

COC(=O)c1c(O)ccc2c1c1c(n2Cc2cc(OC)cc(OC)c2)C(=O)c2ccccc2C1
inactive: [2] 47.8 µM | [3] > 100 µM | [4] 50.6 µM | [5] 11.7 µM | [6] 37.8 µM | [7] 33.1 µM | [8] 11.2 µM | [9] 16.7 µM | [10] > 100 µM | [11] 50.6 µM | [12] 4.7 µM | [13] 8.28 µM | [20] 29 µM | [15] 43.2 µM | [16] 66.8 µM | [17] 87.3 µM | [18] 18.4 µM | [19] 67 µM

CC(=O)OCC1OC(N2C(C)=C(C(C)=O)C(c3ccc(Cl)cc3)C(C#N)=C2S)C(OC(C)=O)C(OC(C)=O)C1OC(C)=O (configuration not stated)
inactive: [1] 77.8 µM | [2] 66.5 µM | [3] 37.3 µM | [4] 37.6 µM | [5] 42.7 µM | [6] 56.8 µM | [7] 76.2 µM | [8] 51.6 µM | [9] 8.71 µM | [10] > 100 µM | [11] 44.1 µM | [12] 27.9 µM | [13] 36.7 µM | [14] 47.1 µM | [15] 61.4 µM | [16] 31.1 µM | [17] 28.5 µM | [18] > 100 µM | [19] 48.8 µM

COc1cc(C2S/C(=C/c3ccccc3)C(=O)N2c2cccc([N+](=O)[O-])c2)cc(OC)c1OC (configuration not stated)
inactive: [1] > 100 µM | [2] 27.5 µM | [4] 15.9 µM | [5] 50.1 µM | [6] 72.1 µM | [7] 40.8 µM | [8] 83.2 µM | [9] 42.2 µM | [10] > 100 µM | [13] 36.2 µM | [14] > 100 µM | [20] > 100 µM | [16] 51.5 µM | [17] > 100 µM | [18] > 100 µM | [19] > 100 µM

CCN(CC)C(=S)SNCCc1ccc(S(N)(=O)=O)cc1
inactive: [1] 17.9 µM | [2] 15.5 µM | [4] 33.6 µM | [5] 10.2 µM | [6] 10.9 µM | [7] 8 µM | [8] 14.4 µM | [9] 17.4 µM | [10] 12.2 µM | [11] 14.1 µM | [12] 13.9 µM | [13] 13.3 µM | [14] 21.6 µM | [20] 25.4 µM | [15] 18.9 µM | [16] 20 µM | [17] 19.5 µM | [18] 15.6 µM | [19] 15.5 µM

O=C1CC2C(=O)C1C(C(=O)O)C2C(=O)O (configuration not stated)
inactive: [1] > 100 µM | [2] > 100 µM | [3] > 100 µM | [4] > 100 µM | [5] > 100 µM | [6] > 100 µM | [7] > 100 µM | [8] > 100 µM | [9] > 100 µM | [10] > 100 µM | [11] > 100 µM | [13] > 100 µM | [20] > 100 µM | [15] > 100 µM | [16] > 100 µM | [17] > 100 µM | [18] > 100 µM | [19] > 100 µM
